Experimental data reported in ChEMBL document CHEMBL1146784, “Human ACAT-1 and -2 inhibitory activities of saucerneol B, manassantin A and B isolated from Saururus chinensis” (Bioorg Med Chem Lett, 2004).

Tests used:
Mus musculus = species: Mus musculus; test: Effect against body weight of mice when treated with 0.1% wt/wt diet of compound for 10 days; On day 0 =21.8 g; format: functional
[1] = target: T1, Sterol O-acyltransferase 2 (Homo sapiens, UniProt O75908); test: (§1) Concentration required to inhibit Acyl coenzyme A:cholesterol acyltransferase 2
T1 sequence (O75908 whole entry): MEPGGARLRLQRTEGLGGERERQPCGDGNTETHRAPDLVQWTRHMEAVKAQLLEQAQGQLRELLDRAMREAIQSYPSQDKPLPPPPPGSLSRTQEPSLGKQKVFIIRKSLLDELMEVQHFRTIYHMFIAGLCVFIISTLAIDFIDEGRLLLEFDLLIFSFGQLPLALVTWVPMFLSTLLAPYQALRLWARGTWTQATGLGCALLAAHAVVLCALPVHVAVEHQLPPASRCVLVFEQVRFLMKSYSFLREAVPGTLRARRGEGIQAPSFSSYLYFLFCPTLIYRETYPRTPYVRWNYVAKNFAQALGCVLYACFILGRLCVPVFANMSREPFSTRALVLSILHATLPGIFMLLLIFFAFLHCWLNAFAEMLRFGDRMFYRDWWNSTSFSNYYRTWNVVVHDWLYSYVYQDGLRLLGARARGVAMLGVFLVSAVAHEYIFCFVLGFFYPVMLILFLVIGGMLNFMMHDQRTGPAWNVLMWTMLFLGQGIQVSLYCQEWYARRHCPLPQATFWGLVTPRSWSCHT

[2] = target: T2, Sterol O-acyltransferase 2 (Homo sapiens) (UniProt O75908); test: as §1; conditions: concentration not given here
T2 sequence (whole entry): T1 sequence (O75908 whole entry)

CC(C)(Sc1cc(C(C)(C)C)c(O)c(C(C)(C)C)c1)Sc1cc(C(C)(C)C)c(O)c(C(C)(C)C)c1 [PROBUCOL]
Body weight (Mus musculus): 23.7 g

COc1ccc(C(O)C(C)Oc2ccc([C@H]3O[C@H](c4ccc(OC(C)C(O)c5ccc(OC)c(OC)c5)c(OC)c4)[C@H](C)[C@H]3C)cc2OC)cc1OC (stereo partly drawn)
IC50 [1]: 39 µM

COc1ccc(C(O)C(C)Oc2ccc([C@H]3O[C@H](c4ccc(OC(C)C(O)c5ccc6c(c5)OCO6)c(OC)c4)[C@H](C)[C@H]3C)cc2OC)cc1OC (stereo partly drawn)
inhibition [2]: 32%
